Source: US7825068B2, “Heterocyclylethylcarboxamide derivatives” (Bayer Cropscience AG, priority 2005, dated 2010)

Tests used:
[1] = test system: Alternaria brassicae; assay: In vivo test on Alternaria brassicae (preventive spray on radish plants); conditions: for efficacy against Alternaria brassicae: 330 ppm, comparison compounds of WO 2004/074280
Description: The active ingredient tested is prepared by potter homogenisation in a concentrated suspension type formulation at 100 g/l. […] Radish plants (Pernot variety) in starter cups, sown on a 50/50 peat soil-pozzolana substrate and grown at 18-20° C., are treated at the cotyledon stage by spraying with the aqueous suspension described above. Plants, used as controls, are treated with an aqueous solution not containing the active material. After 24 hours, the plants are contaminated by spraying them with an aqueous suspension of Alternaria brassicae spores (40,000 spores per cm^3). The spores are collected from a 12-13-day-old culture. The contaminated radish plants are incubated for 6-7 days at about 18° C., under a humid atmosphere. Grading is carried out 6 to 7 days after the contamination, in comparison with the control plants.

[2] = test system: Pyrenophora teres; assay: In vivo test on Pyrenophora teres (preventive spray on barley plants); conditions: 330 ppm; comparison compounds of WO 2004/074280
Description: The active ingredient tested is prepared by potter homogenisation in a concentrated suspension type formulation at 100 g/l. […] Barley plants (Express variety) in starter cups, sown on a 50/50 peat soil-pozzolana substrate and grown at 12° C., are treated at the 1-leaf stage (10 cm tall) by spraying with the aqueous suspension described above. Plants, used as controls, are treated with an aqueous solution not containing the active material. After 24 hours, the plants are contaminated by spraying them with an aqueous suspension of Pyrenophora teres spores (12,000 spores per ml). The spores are collected from a 12-day-old culture. The contaminated barley plants are incubated for 24 hours at about 20° C. and at 100% relative humidity, and then for 12 days at 80% relative humidity. Grading is carried out 12 days after the contamination, in comparison with the control plants.

| SMILES | protection (good (at least 50%) to total) ([1]; dose of 110 ppm, radish plants (Pernot variety), grading 6 to 7 days after contamination, in comparison with control plants) | efficacy against Alternaria brassicae [1] | efficacy against Pyrenophora teres [2] |
| --- | --- | --- | --- |
| Cc1cc(C(=O)NCCc2cn(C)nc2C(F)(F)F)c(C(F)(F)F)o1 [Compound J-3] | at least 50% | – | – |
| O=C(NCCc1ncc(C(F)(F)F)cc1Cl)C1CCN(C(=O)OCc2ccccc2)CC1 [Compound T1, benzyl 4-[({2-[3-chloro-5-(trifluoromethyl)pyridin-2-yl]ethyl}amino)carbonyl]piperidine-1-carboxylate] | – | no efficacy | no efficacy |
| Cn1cccc1C(=O)NCCc1ncc(C(F)(F)F)cc1Cl [Compound F1, N-{2-[3-chloro-5-(trifluoromethyl)pyridin-2-yl]ethyl}-1-methyl-1H-pyrrole-2-carboxamide] | – | no efficacy | no efficacy |
| CSc1sc(C(=O)NCCc2ncc(C(F)(F)F)cc2Cl)c(I)c1S(=O)(=O)C(C)C [Compound C10, N-{2-[3-chloro-5-(trifluoromethyl)pyridin-2-yl]ethyl}-3-iodo-4-(isopropylsulfonyl)-5-(methylthio)thiophene-2-carboxamide] | – | no efficacy | no efficacy |
| Cc1onc(-c2ccccc2)c1C(=O)NCCc1ncc(C(F)(F)F)cc1Cl [Compound M3, N-{2-[3-chloro-5-(trifluoromethyl)pyridin-2-yl]ethyl}-5-methyl-3-phenylisoxazole-4-carboxamide] | – | no efficacy | no efficacy |
| CC1=C(C(=O)NCCc2nc(Cl)ccc2Cl)SCCO1 [Compound V10, N-[2-(3,6-dichloropyridin-2-yl)ethyl]-2-methyl-5,6-dihydro-1,4-oxathiine-3-carboxamide] | – | no efficacy | no efficacy |
| Cc1nc(-c2ccccc2)sc1C(=O)NCCc1ncc(C(F)(F)F)cc1Cl [Compound H3, N-{2-[3-chloro-5-(trifluoromethyl)pyridin-2-yl]ethyl}-4-methyl-2-phenyl-1,3-thiazole-5-carboxamide] | – | no efficacy | no efficacy |
| O=C(NCCc1ccc(Cl)cn1)c1cccnc1Cl [Compound R32, 2-chloro-N-[2-(5-chloropyridin-2-yl)ethyl]nicotinamide] | – | no efficacy | no efficacy |
| Cc1cc(C(=O)NCCc2nc(F)c(F)cc2F)c(C)o1 [Compound B17, 2,5-dimethyl-N-[2-(3,5,6-trifluoropyridin-2-yl)ethyl]-3-furamide] | – | no efficacy | no efficacy |
| Cc1c(C(=O)NCCc2ncc(C(F)(F)F)cc2Cl)cnn1-c1ccccc1 [Compound J9, N-{2-[3-chloro-5-(trifluoromethyl)pyridin-2-yl]ethyl}-5-methyl-1-phenyl-1H-pyrazole-4-carboxamide] | – | no efficacy | no efficacy |
| CC1=C(C(=O)NCCc2ncc(Cl)cc2F)SCCO1 [Compound V9, N-[2-(5-chloro-3-fluoropyridin-2-yl)ethyl]-2-methyl-5,6-dihydro-1,4-oxathiine-3-carboxamide] | – | no efficacy | no efficacy |
